In patent publication US11459311B2, “Pharmaceutical composition containing indirubin derivative as active ingredient” (CK Regeon Inc., priority 2017, dated 2022):
Like-named read-outs stand apart in the source and are kept apart here. Each block holds one compound with its values, some of them ahead of it.

How the values were obtained:
longitudinal bone = test: ex-vivo longitudinal bone culture, length measurement; type: cell-based, C57BL/6 mice; conditions: for length of the longitudinal bone increased more effectively than by comparative indirubin derivatives: versus Comparative Examples 8, 9 and 10-12; for increase of the length of the long bone relative to the control group: printed as about two times (180%)
Experimental: Longitudinal bones were isolated from 15.5 embryonic day C57BL/6 mice and incubated for 7 days in a 24-well tissue culture dish. Medium was used as Minimal Essential Medim (α-MEM, Gibco) including 10% fetal bovine serum (FBS), 1 mM beta polyglycerol disodium phosphate, 50 ng/ml ascorbic acid, 0.3 g/L-glutamine, 0.2% BSA, 100 U/ml penicillin, 100 μg/ml streptomycin. After the longitudinal bone was separated from the mouse, the longitudinal bone isolated from the medium was incubated for 24 hours, and the drug was treated. The medium and the drug (here are Example 1, Example 2, Comparative Examples 1, 7-9 and indirubin derivatives of 10-12) were changed every other day. The length of the longitudinal bone was measured before and after treatment with the drug. The longitudinal bone tissue after drug treatment was marched with PBS and fixed using 4% formaldehyde.
In order to more precisely determine the effect of indirubin derivatives in Example 1 or Example 2 of the present invention and other indirubin derivatives on the culture of ex-vivo longintudinal bone, various indirubin derivatives (Examples 1 and 2 and comparison Example 1, 8, 9, 10-12 indirubin derivatives) were treated as in Experimental Method 6, and the length of the longitudinal bone was measured.
FIG. 1 is a photograph of the longitudinal bone cultured at each ex-vivo when treated with indirubin induction in Example 1, Example 2, and Comparison Example 1, 8, 9, 10-12. FIG. 2 is a graph and table showing the variation in the length of the longitudinal bone measured in FIG. 1. In this case, the drooping indirubin derivatives were identical at 0.5 μM and treated in culture medium for 6 days.
We sought to determine more accurately the effect of 6-bromoindirubin-3′-oxime (Comparative Example 6) on the culture of ex-vivo longitudinal bone. FIG. 3A is a photograph (left) of a longitudinal bone culture in ex-vivo and a graph showing the numerical value when treated with 6-bromoindirubin-3′-oxime of Comparative Example 6 (right). At that time, 0.5 μM 6-bromoindirubin-3′-oxime was treated in culture medium for 6 days. The control is longitudinal bone treated with DMSO solution instead of drug.

β-catenin [1] = test: Immunocytochemistry of β-catenin expression and localization in ATDC5 cells; type: cell-based, Murine; conditions: 24 hours treatment, ICC
Experimental: (§1) The ATDC5 cell (Murine constant cell line) was cultured in the DMEM (Dulbecco's modified Eagle's medium, Gibco, Grand Island, N.Y.) containing 5% Fetal Bovine Serum (FBS) and 1% penicillin/streptomycin under conditions of 37° C. and 5% CO2.
Drugs (here are 5,6-dichloroindirubin-3′-methoxime, 5-methoxylindirubin-3′-oxime) were treated for 24 hours when the cells were securely attached to the cover glass that was placed in the 12 well plate at a density of 2.5×10^4 cells per well. Cells were cleaned with phosphoric acid buffer solution and fixed at room temperature for 20 minutes by adding 4% paraformaldehyde, and then a protein expressed in the cells was observed through the process of permeabilization, blocking and immunofluorescence.
FIG. 6 is a photograph confirming the β-catenin concentration in the ATDC5 cells treated with 5,6-dichloroindirubin-3′-methoxime of Example 1 and 5-methoxylindirubin-3′-oxime of Example 2 by immunocytochemistry. In other words, the expression and localization of β-catenin in ATDC5 cells were confirmed through ICC.

[2] = tested on: osteoblasts and chondrocytes; test: toxicity to osteoblasts and chondrocytes; type: cell-based
[3] = tested on: ALP (alkaline phosphatase); test: ALP activity assay in MC3T3-E1 cells; type: cell-based, Mouse; conditions: for increase of ALP activity: MC3T3-E1 cells, differentiation medium, 48 hours, versus control
Experimental: (§2) The MC3T3-E1 cell (Mouse osteoblastic cell line) was cultivated under conditions of 37° C. and 5% CO2 at the minimal essential media (α-MEM) (Gibco) containing 10% prenatal serum and 1% penicillin/streptomycin. For the test of differentiation induction, cells were cultivated in α-MEM mediums containing 50 μg/ml ascorbic acid and 100 mM β-glycerophosphate.
5×10^4 MC3T3-E1 cells were incubated on a 24 well plate for two days and stuck. After confirming that the cells reached 100% confluency, the medications (5,6-dichloroindirubin-3′-methoxime in Example 1) were treated in the differentiation medium for 48 hours. The cells were cleaned with a phosphoric acid buffer solution and the samples harvested were treated with a buffer solution (pH 10.3) containing 50 mM Tris-chloric acid, 100 mM glisin and p-nitro phenylpospate after cell lysis. For analysis, 3 M sodium hydroxide was treated, and absorbance was measured at 405 nm. The ALP activity was quantified by measuring the protein concentration using Bradford Analyzer.
ALP activity analysis was performed as Experimental Method 5 to determine the effect of 5,6-dichloroindirubin-3′-methoxime in Example 1 and 5-methoxylindirubin-3′-oxime in Example 2 on bone mineral density. FIG. 4 is a table showing the measured a graph showing ALP activity in cells and a table showing the degree of ALP activity in cells treated with 5,6-dichloroindirubin-3′-methoxime of Example 1 according to the present invention, 5-methoxylindirubin-3′-oxime of Example 2, indirubin derivatives of Comparative Examples 1-5 and 12. The control is the ALP activity in the cells prior to drug treatment.

[4] = oral toxicity study in mouse; conditions: in vivo
Experimental: When an indirubin derivative represented by Formula 1 (5,6-dichloroindirubin-3′-methoxime) and an indirubin derivative represented by Formula 2 (5-methoxylindirubin-3′-oxime) were orally administered to a mouse for toxicity studies, they are considered to be safe substances because the 50% lethal dose (LD 50) of them are at least 1,000 mg/kg.

β-catenin [5] = test: Western blot for β-catenin stabilization in MC3T3-E1 cells; type: cell-based, Mouse; conditions: 24 hours treatment
Experimental: as §2
For Western blot analysis, drugs (here are 5,6-dichloroindirubin-3′-methoxime, 5-methoxylindirubin-3′-oxime) were treated 24 hours, and MC3T3-E1 cells were cultured and harvested in a culture dish to reach 100% confluency. Harvested samples for immunoblot was performed to quantify the protein was after cell lysis, using SDA-PAGE gel using the antibody after electrophoresis.
FIG. 5 is the result of Western blot using MC3T3-E1 cells (osteoblast cells) to confirm the effects of 5,6-dichloroindirubin-3′-methoxime of Example 1 and 5-methoxyindirubin-3′-oxime of Example 2 on the stability of β-catenin.

[6] = tested on: ATDC5 cells (chondrocytes); test: MTT reduction analysis; type: cell-based, Murine; conditions: 24 hours treatment
Experimental: as §1
When the cells were stably attached after 5×10^3 ATDC5 cells were stuck in 96 well plate, the drug (here is 6-bromoindirubin-3′-oxime) was treated. After 24 hours, transfer to a medium containing 100 μg/ml MTT [3-(4,5-dimethylthiazol-2-yl)-2,5-diphenyletrazoliumbromide)] and incubate the cells for 2 hours before removing the growth medium. The MTT, which was reduced to purple formazan, was dissolved with DMSO and then excreted at 540 nm by ab absorbance measurement.
FIG. 3B is a graph of MTT reduction analysis of chondrocytes after treatment of different concentration of 6-bromoindirubin-3′-oxime to confirm if the reduction in the length of longitudinal bone treated with 6-bromoindirubin-3′-oxime in Comparative Example 6 is related to the effect on the survival rate of chondrocytes.
MTT reduction assay is a method to measure the viability of cells by analyzing the difference in absorbance due to the reduction of yellow MTT to purple formazan caused by mitochondrial enzyme reaction in living cells.

[7] = 0.5 μM, 6 days in culture medium

SMILES: CO/N=C1/C(=C2/C(=O)Nc3cc(Cl)c(Cl)cc32)Nc2ccccc21 [Example 1, 5,6-dichloroindirubin-3′-methoxime]
length of the longitudinal bone increased more effectively than by comparative indirubin derivatives (longitudinal bone; [7]): about 54%
increase of the length of the long bone relative to the control group (longitudinal bone): ~180%
movement of stabilized β-catenin into the nucleus (β-catenin [1]): increase the mobility of the stabilized β-catenin into the nucleus
toxicity to osteoblasts and chondrocytes [2]: not toxic
increase of ALP activity [3]: ~2 fold
LD50 ([4]; orally administered, read-out: 50% lethal dose (LD 50)): ≥ 1000 mg/kg
stabilization of β-catenin (β-catenin [5]): significantly induced the stabilization of β-catenin

concentration at which growth of chondrocytes is inhibited [6]: ≥ 1000 nM
SMILES: O=C1Nc2cc(Br)ccc2/C1=C1/Nc2ccccc2/C1=N\O [Comparative Example 6, 6-bromoindirubin-3′-oxime]
length of the ex-vivo longitudinal bone compared to control group (longitudinal bone; 0.5 μM, 6 days in culture medium, control DMSO): reduced
survival rate of chondrocytes ([6]; 5 μM): below 50%

SMILES: COc1ccc2c(c1)/C(=C1/Nc3ccccc3/C1=N\O)C(=O)N2 [Example 2, 5-methoxylindirubin-3′-oxime]
length of the longitudinal bone increased more effectively than by comparative indirubin derivatives (longitudinal bone; [7]): about 54%
increase of the length of the long bone relative to the control group (longitudinal bone): ~180%
movement of stabilized β-catenin into the nucleus (β-catenin [1]): increase the mobility of the stabilized β-catenin into the nucleus
toxicity to osteoblasts and chondrocytes [2]: not toxic
increase of ALP activity [3]: ~2 fold
effects on bone growth, bone thickness or both more significant than those of other indirubin derivatives ([3]; versus other indirubin derivatives, test not specified): more than 30%
LD50 [4]: ≥ 1000 mg/kg
stabilization of β-catenin (β-catenin [5]): significantly induced the stabilization of β-catenin
